Reference: article PMC5316403, “A multicenter assessment of single-cell models aligned to standard measures of cell health for prediction of acute hepatotoxicity” (Archives of Toxicology, 2016)
Like-named read-outs stand apart in the source and are kept apart here.

How the values were obtained:
man = settings: cited from earlier work
[1] = design: method as in references provided in Table 4; settings: therapeutic concentrations, used to calculate EC50/Cmax; ref references provided in Table 4; cited from earlier work
[2] = test system: primary human hepatocytes (PHH); test: Cytotoxicity (intracellular ATP, CellTiter Glo) in primary human hepatocytes; assay type: cell-based; settings: cryopreserved PHH, 24 or 72 h, all test sites, up to highest dose
Procedure: Cryopreserved PHH from five donors were provided by KaLy-Cell (Plobsheim, France). […] Cell number and viability were determined by the trypan blue exclusion method, and the cells were plated at a seeding density of 70,000 cells/well of a KaLy-Cell home-coated type I rat tail collagen (10 µg/well) 96-well plate. […]
(§1) The CellTiter Glo assay kit (Promega, Madison, WI, USA) was used to determine the ATP content in the cells after exposure to the thirteen compounds for 24 or 72 h. […] The supernatant samples were transferred into opaque flat-bottomed 96-well plates (Greiner-Bio-One, Frickenhausen, Germany) and the luminescence measured.
(§2) Cell viability was determined as the percentage of the fluorescent resorufin after incubation with resazurin in the treated cells compared with vehicle control or the percentage of ATP detected in the treated cells compared with vehicle control. Individual EC50 values from all participants were calculated using GraphPad Prism 6 (version 6.03) at one partner site. […]

HepG2/ECACC cells = test: Cytotoxicity (intracellular ATP, CellTiter Glo) in HepG2/ECACC cells; assay type: cell-based, human; settings: 24 or 72 h, all test sites, up to highest dose
Procedure: A specific clone of HepG2 cells was purchased from the European Collection of Cell Cultures (ECACC). The cells were cultivated and low passage frozen stocks were generated and banked by one MIP-DILI partner designated as the cell bank. The cells were distributed to the relevant MIP-DILI partners. […] Cell number and viability were determined using the trypan blue exclusion method, and the cells were plated at a seeding density of 20,000 cells/well in BD Biocoat Collagen I 96-well plates (Beckton Dickinson, New Jersey, USA). […]
as §1, §2

[3] = test system: cryopreserved HepaRG cells; test: Cytotoxicity (intracellular ATP, CellTiter Glo) in cryopreserved HepaRG cells; assay type: cell-based, human; settings: 24 or 72 h, all test sites, up to highest dose
Procedure: Differentiated cryopreserved HepaRG cells were purchased from Biopredic International (Saint-Gregoire, France). The cells were thawed in Thawing/Plating Medium [Williams’ Medium E supplemented with 1 % penicillin/streptomycin, 1 % L-Glutamine, 10 % FCS and 12.5 % ADD670 cocktail (BioPredic International, Saint-Gregoire, France; proprietary medium composition)], centrifuged (500×g; 5 min; room temperature) and then resuspended in fresh Thawing/Plating Medium. After the addition of the ADD670 cocktail, the final DMSO concentration in the Thawing/Plating Medium was 0.5 %. Cell number and viability were determined by the trypan blue exclusion method, and the cells were plated at a seeding density of 72,000 cells/well in white/clear bottom 96-well plates (Beckton Dickinson, New Jersey, USA). […]
as §1
Cell viability was determined as the percentage of the fluorescent resorufin after incubation with resazurin in the treated cells compared with vehicle control or the percentage of ATP detected in the treated cells compared with vehicle control. […]

Upcyte hepatocytes = test: Cytotoxicity (intracellular ATP, CellTiter Glo) in Upcyte hepatocytes; assay type: cell-based, human; settings: Upcyte cells, 24 or 72 h, all test sites, up to highest dose
Procedure: The cells were then centrifuged (90×g; 5 min; room temperature) and resuspended in fresh Upcyte High Performance Medium (Medicyte, Heidelberg, Germany). Cell number and viability were determined via the trypan blue exclusion method, and the cells were seeded at 18,750 cells/well in white/clear bottom 96-well plates (Beckton Dickinson, New Jersey, USA). After seeding, the cells were incubated for 72 h (37 °C; 5 % CO2; 95 % air) without additional medium change prior to compound treatment.
The compound concentrations used were chosen as representative for each compound when conducting an in vitro safety assessment study. […] Stock aliquots were stored at −20 °C and only thawed once. […]
as §1, §2

[4] = reported to cause hepatotoxicity in man or not, ref references in Table 4

Row | Structure (SMILES) | Hepatotoxic/non-hepatotoxic (man; [4]) | Cmax [1] [nM] | also measured
1 | COc1ccccc1Oc1c(NS(=O)(=O)c2ccc(C(C)(C)C)cc2)nc(-c2ncccn2)nc1OCCO [Bosentan] | Hepatotoxic |  | 
2 | O=C1CC2(CCCC2)CC(=O)N1CCCCN1CCN(c2ncccn2)CC1 [Buspirone] | Non-hepatotoxic |  | 
3 | O=C(O)Cc1ccccc1Nc1c(Cl)cccc1Cl [Diclofenac] |  |  | Hepatotoxic/non-hepatotoxic (man; in vivo): Hepatotoxic
4 | CCN(CC)C(=O)/C(C#N)=C/c1cc(O)c(O)c([N+](=O)[O-])c1 [Entacapone] | Non-hepatotoxic | 1500 | 
5 | CN(C)C(=N)N=C(N)N [Metformin] |  | 7740 | 
6 | CCc1nn(CCCN2CCN(c3cccc(Cl)c3)CC2)c(=O)n1CCOc1ccccc1 [Nefazodone] | Hepatotoxic | 859 | 
7 | CC(=O)Nc1ccc(O)cc1 [Paracetamol] | Hepatotoxic |  | 
8 | C1CCC(C(CC2CCCCN2)C2CCCCC2)CC1 (stereo not drawn) [Perhexiline] | Hepatotoxic | 1520 | 
9 | CCc1ccc(CCOc2ccc(CC3SC(=O)NC3=O)cc2)nc1 (stereo not drawn) [Pioglitazone] | Non-hepatotoxic | 2670 | 
10 | Cc1ccc(C(=O)c2cc(O)c(O)c([N+](=O)[O-])c2)cc1 [Tolcapone] | Hepatotoxic | 27800 | 
11 | Cc1c(C)c2c(c(C)c1O)CCC(C)(COc1ccc(CC3SC(=O)NC3=O)cc1)O2 (stereo not drawn) [Troglitazone] | Hepatotoxic | 6390 | 
12 | CCOC(=O)CN[C@@H](C(=O)N1CC[C@H]1C(=O)NCc1ccc(/C(N)=N\O)cc1)C1CCCCC1 [Ximelagatran] |  |  | toxicity (cell viability) [2]: no toxicity was detected even at the highest doses; toxicity (cell viability) (HepG2/ECACC cells): no toxicity was detected even at the highest doses; toxicity (cell viability) [3]: no toxicity was detected even at the highest doses; toxicity (cell viability) (Upcyte hepatocytes): no toxicity was detected even at the highest doses
